What all share (type): in vivo
Test [1] relates to Ctenocephalides felis. Description: Ctenocephalides felis - in vitro contact tests with fleas (CTECFE). The settings on record: 1 μg/cm^2, adult fleas, after 48 h. On the procedure:
For the coating of the test tubes, 9 mg of active ingredient are first dissolved in 1 ml of acetone p.a. and then diluted to the desired concentration with acetone p.a. 250 μl of the solution are distributed homogeneously on the inner walls and base of a test tube (25 ml crimp top vial (Fisher Scientific, Order No. 320 55 60) by turning and rocking on a “Rock ‘n’ Roller” (Model L202, Labinco; rocking rotation at 30 rpm in a fume hood for 2 h). With 900 ppm active ingredient solution and internal surface area 44.7 cm^2, given homogeneous distribution, an area-based dose of 5 μg/cm^2 is achieved.
Preparation examples for the inventive halogen-substituted compounds of the formula (I) are tested for their contact efficiency with ectoparasitic insects (cat fleas here). For this purpose, crimp top vials are coated with 250 μl of an acetone solution of the active ingredient as described above. After the solvent has evaporated off, the tubes are populated with 5-10 fleas (adult Ctenocephalides felis), sealed with a perforated plastic lid and incubated in a horizontal position at room temperature and ambient humidity. After 48 h, efficacy (knockdown and mortality) and mortality are determined To this end, the test tubes are stood upright and the fleas are knocked to the base of the tube. […]

Test [2] has as its system Ctenocephalides felis. Nature of the test: Ctenocephalides felis - oral test. The settings on record: 100 ppm in citrated cattle blood, adult cat fleas, after 2 days. On the procedure: (§1) Solvent: dimethyl sulphoxide
(§2) For the purpose of producing an appropriate active ingredient formulation, 10 mg of active ingredient are mixed with 0.5 ml of dimethyl sulphoxide. Dilution with citrated cattle blood gives the desired concentration.
(§3) About 20 unfed adult cat fleas (Ctenocephalides felis) are placed into a chamber which is closed at the top and bottom with gauze. A metal cylinder whose bottom end is closed with parafilm is placed onto the chamber. The cylinder contains the blood/active ingredient preparation, which can be imbibed by the fleas through the parafilm membrane.
(§4) After 2 days, the kill in % is determined 100% means that all of the fleas have been killed; 0% means that none of the fleas have been killed.

For test [3], the system named is Boophilus microplus. Description: Boophilus microplus - injection test (BBOMI Inj). The settings on record: 4 μg/animal, injected into engorged adult female cattle ticks, after 7 days. On the procedure: as §1
(§5) To produce an appropriate active ingredient formulation, 10 mg of active ingredient are mixed with 0.5 ml of solvent and the concentrate is diluted with solvent to the desired concentration.
(§6) 1 μl of the active ingredient solution is injected into the abdomen of 5 engorged adult female cattle ticks (Boophilus microplus). The animals are transferred into dishes and kept in a climate-controlled room.
(§7) Efficacy is assessed after 7 days by laying of fertile eggs. Eggs which are not visibly fertile are stored in a climate-controlled cabinet until the larvae hatch after about 42 days. An efficacy of 100% means that none of the ticks has laid any fertile eggs; 0% means that all the eggs are fertile.

A further test deals with Spodoptera frugiperda. Nature of the test: Spodoptera frugiperda - spray test. The following applies: 100 g/ha, maize leaf discs, after 7 days. On the procedure: (§8) Solvent: 78.0 parts by weight of acetone
(§9) • 1.5 parts by weight of dimethylformamide Emulsifier: alkylaryl polyglycol ether
(§10) To produce an appropriate active ingredient formulation, 1 part by weight of active ingredient is dissolved using the specified parts by weight of solvent and made up with water containing an emulsifier concentration of 1000 ppm until the desired concentration is attained. To produce further test concentrations, the preparation is diluted with emulsifier-containing water.
Leaf discs of maize (Zea mays) are sprayed with an active ingredient formulation of the desired concentration and, after drying, populated with caterpillars of the armyworm (Spodoptera frugiperda).
After 7 days, efficacy in % is determined. 100% means that all the caterpillars have been killed; 0% means that no caterpillars have been killed.

Test [4] concerns Anopheles funestus strain FUMOZ-R. Nature of the test: Anopheles test (ANPHFU surface treatment). The settings on record: Anopheles funestus, read-out: efficacy (mortality in %). On the procedure: (§11) Solvent: acetone+2000 ppm rapeseed oil methyl ester (RME)
To produce an appropriate active ingredient formulation, the active ingredient is dissolved in the solvent (2 mg/ml). The active ingredient formulation is pipetted onto a glazed tile and, after it has dried off, adult mosquitoes of the species Anopheles funestus strain FUMOZ-R (Hunt et al., Med Vet Entomol. 2005 September; 19(3):271-5) are placed onto the treated tile. The exposure time is 30 minutes.
(§12) 24 hours after contact with the treated surface, mortality in % is determined 100% means that all mosquitoes have been killed; 0% means that none of the mosquitoes have been killed.

In test [5] the test system is Aedes aegypti strain MONHEIM. Nature of the test: Aedes test (AEDSAE surface treatment). The following applies: read-out: efficacy (mortality in %). On the procedure:
as §11
To produce an appropriate active ingredient formulation, the active ingredient is dissolved in the solvent (2 mg/ml). The active ingredient formulation is pipetted onto a glazed tile and, after it has dried off, adult mosquitoes of the species Aedes aegypti strain MONHEIM are placed onto the treated tile. The exposure time is 30 minutes.
as §12

For test [6], the system named is Ctenocephalides felis. Description: Ctenocephalides felis - in vitro contact tests with adult cat fleas. The settings on record: 5 μg/cm^2, adult cat fleas, after 48 h. On the procedure: For the coating of the test tubes, 9 mg of active ingredient are first dissolved in 1 ml of acetone p.a. and then diluted to the desired concentration with acetone p.a. 250 μl of the solution are distributed homogeneously on the inner walls and base of a 25 ml test tube by turning and rocking on an orbital shaker (rocking rotation at 30 rpm for 2 h). With 900 ppm active ingredient solution and internal surface area 44.7 cm^2, given homogeneous distribution, an area-based dose of 5 μg/cm^2 is achieved.
After the solvent has evaporated off, the tubes are populated with 5-10 adult cat fleas (Ctenocephalides felis), sealed with a perforated plastic lid and incubated in a horizontal position at room temperature and ambient humidity. After 48 h, efficacy is determined. To this end, the test tubes are stood upright and the fleas are knocked to the base of the tube. Fleas which remain motionless at the base or move in an uncoordinated manner are considered to be dead or moribund.
100% efficacy means that all the fleas were dead or moribund. 0% efficacy means that no fleas were harmed.

The subject of test [7] is Boophilus microplus. Nature of the test: Boophilus microplus - injection test. The following applies: 20 μg/animal, injected into engorged adult female cattle ticks, after 7 days. On the procedure: as §1, §5, §6, §7
The subject of the next test is Tetranychus urticae. Description: Tetranychus urticae - spray test, OP-resistant. The following applies: 100 g/ha, bean leaf discs, after 6 days. On the procedure:
as §8, §9, §10
Discs of bean leaves (Phaseolus vulgaris) infested by all stages of the greenhouse red spider mite (Tetranychus urticae) are sprayed with an active ingredient formulation of the desired concentration.
After 6 days, efficacy in % is determined 100% means that all the spider mites have been killed; 0% means that none of the spider mites have been killed.

Test [8] concerns Ctenocephalides felis. Description: Ctenocephalides felis - oral test (CTECFE). The following applies: 20 ppm in citrated cattle blood, adult cat fleas, after 2 days. On the procedure:
as §1, §2, §3, §4

By mortality is commonly meant the share of the test organisms that died.

For the compound `Cc1cc(C(F)(C(F)(F)F)C(F)(F)F)cc(C)c1-c1cn(-c2ccc(Cl)c(C(=O)NC3CC3)c2)nn1` [I-T48-1, 2-chloro-N-cyclopropyl-5-[4-[2,6-dimethyl-4-[1,2,2,2-tetrafluoro-1-(trifluoromethyl)ethyl]phenyl]triazol-1-yl]benzamide], the “efficacy (moribund/knocked down or dead)” value in the test on Ctenocephalides felis [1] is 100%. Also, the “efficacy (kill in %)” value with Ctenocephalides felis [2] and in the test with Ctenocephalides felis [8] was 100% in each case. Moreover, the “efficacy (no fertile eggs laid)” value with Boophilus microplus [3] and with Boophilus microplus [7] was 100% each time. Moreover, the “efficacy (caterpillars killed)” value in the test with Spodoptera frugiperda was 100%. The mortality at 100 mg/m2 in test [4] and in test [5] was 90 to 100% each time. Further, the mortality at 20 mg/m2 in test [5] was 90 to 100%. The “efficacy (dead or moribund)” value in the test with Ctenocephalides felis [6] was determined as 100%. Besides, the “efficacy (spider mites killed)” value in the test with Tetranychus urticae came to 100%.

(Values after US10836732B2, “Compounds for combating arthropods” (priority 2013, dated 2020).)
